The assay in a line: Blocker Index (BI), expert graders, isovaleric acid malodorous swatch treated with test material. From the text: Blocker materials suitable for use in consumer products of the present invention are chosen for their ability to decrease malodor, while not interfering with perception of a fragrance. Material selection is done by assigning two indices to a test sample material from two reference scales in order to rank odor strengths. The two reference scales are the Fragrance Fidelity Index (FFI) scale and the Blocker Index (BI) scale. The FFI ranks the ability of the test sample material to impart a perceivable odor which could cause interference when combined with another fragrance and the BI ranks the ability of the test sample material to reduce malodor perception. The two methods for assigning the indices to a test sample on the FFI and the BI reference scales are given below.
The first step in the method for assigning a BI to a test sample material on the BI reference scale is to create the BI reference swatches. […] Fabric swatches for this test are white knit polycotton (4 inch×4 inch) swatches from EMC ordered as PC 50/50. The supplier is instructed to strip the swatches first, stripping involves washing twice with a fragrance-free detergent and rinsing three times.
The BI scale contains one clean swatch with no malodor applied. […] These solutions are pipetted to the middle of the swatches. […] After drying for 30 minutes in a vented hood, the swatches are wrapped in aluminum foil to prevent odor contamination to the treated swatch. A clean untreated swatch is also included as the lowest anchor point of reference for malodor strength on the BI scale. The BI reference scale swatches should be used within 0.5 to 12 hours and discarded after 12 hours. The swatches are used as scale anchor points when graders evaluate a test sample(s) and are assigned a Blocker Index (BI) as show in Table 12.
The perfumer/expert grader is asked to rank order swatches according to a scale between 0 and 3.
The reference swatches represent the 0, 1, 2, and 3 BIs on the BI reference scale, Table 12. The expert grader should familiarizes him/herself with the strength of the odor on the BI reference swatches by sniffing each one starting at 0 (the lowest odor strength) and ending at 3 (the highest odor strength). This should be done prior to evaluating the swatch treated with the test material.
To evaluate the BI, the test material is applied to a malodorous swatch to determine how well the test material blocks the malodor. […] After drying the malodorous swatch a known concentration of test material solution, between 1 ppm and 100 ppm is pipetted onto the malodorous swatch. […] It is sometimes necessary to evaluate several levels of the test material between about 1 and about 100 ppm to determine the BI.
At least two perfumers/expert graders are used to assign the BI to the test sample. […] The test sample swatch is assigned a BI at or between numbers on the BI in table.

[1] abbreviates: Conc 10 ppm test material on isovaleric acid malodorous swatch.
The mark [2] stands for this setting: Conc 50 ppm test material on isovaleric acid malodorous swatch.

SMILES strings stand for the structures.

As to `CC(C)CC(=O)O` [isovaleric acid, reference compound], the “BI of reference swatch, Ave” value (2 μL 0.08% solution, all graders (Table 10)) worked out at 1.0.

`CCC(=O)OC1CC2C3C=CCC3C1C2(C)C` (stereo not shown) [8,8-dimethyl-3a,4,5,6,7,7a-hexahydro-1H-4,7-methanoinden-6-yl propionate] registered a BI under setting [1] of 1.5 and a BI under setting [2] of 2.2.

As to `CC1(C)CCc2ccc(CCC=O)cc21`, the BI under setting [1] worked out at 1.5 and the BI under setting [2] is 2.7.

Regarding `CC1CCC2(C(C)C)CC(C)OC2C1` (stereo not shown), the BI under setting [1] stood at 2.0 and the BI under setting [2] came out at 2.2.

The record behind these values is patent US10552557B2, “Freshening compositions and devices comprising same” (The Procter & Gamble Company, priority 2014, dated 2020).
